Test [1] addresses T1, recombinant N-terminal GST-tagged human Rho kinase 1 (ROCK1, amino acids 1-535) (Homo sapiens, UniProt Q13464).
T1 construct: ROCK1, amino acids 1-535; purchased Invitrogen Inc. PV-3691
Description: In vitro Rho kinase assay (luciferase-based ATP consumption), ROCK1. Format: biochemical. In outline: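 GST-ROCK1 (aa 1-535) at 0.82 μg/ml with 100 μg/ml S6 peptide and 3 µM ATP in Tris pH 7.5 buffer with MgCl2, CaCl2, EGTA, BSA; compound added after reaction start, 2 h at 30 °C. Remaining ATP read by luciferase luminescence; efficacy as percent of H-1152P positive control.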

Test [2] addresses T2, recombinant N-terminal GST-tagged human Rho kinase 2 (ROCK2, amino acids 1-552) (Homo sapiens, UniProt O75116).
T2 construct: ROCK2, amino acids 1-552; purchased Invitrogen Inc. PV3759
As to the kind of experiment: In vitro Rho kinase assay (luciferase-based ATP consumption), ROCK2. Format: biochemical. An outline of the steps:
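GST-ROCK2 (aa 1-552, 0.82 μg/ml) with 100 μg/ml S6 peptide and 3 µM ATP in Tris pH 7.5 buffer with MgCl2/CaCl2/EGTA/BSA, compound added just after reaction start, 2 h at 30 °C. Remaining ATP read by luciferase luminescence. Efficacy expressed as percentage of H-1152P positive control.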

The mark [3] stands for this setting: recombinant GST-tagged human ROCK1, luciferase-based ATP consumption, read-out: ROCK1 IC50.
Where [4] appears, read: recombinant GST-tagged human ROCK2, luciferase-based ATP consumption, read-out: ROCK2 IC50.
Where [5] appears, read: ROCK1 IC50, recombinant GST-tagged human ROCK1, luciferase-based ATP consumption.
The mark [6] stands for this setting: ROCK2 IC50, recombinant GST-tagged human ROCK2, luciferase-based ATP consumption.

pIC50: −log10 of the molar value. Like-named read-outs stand apart in the source and are kept apart here.

T2 sequence (O75116 1-552): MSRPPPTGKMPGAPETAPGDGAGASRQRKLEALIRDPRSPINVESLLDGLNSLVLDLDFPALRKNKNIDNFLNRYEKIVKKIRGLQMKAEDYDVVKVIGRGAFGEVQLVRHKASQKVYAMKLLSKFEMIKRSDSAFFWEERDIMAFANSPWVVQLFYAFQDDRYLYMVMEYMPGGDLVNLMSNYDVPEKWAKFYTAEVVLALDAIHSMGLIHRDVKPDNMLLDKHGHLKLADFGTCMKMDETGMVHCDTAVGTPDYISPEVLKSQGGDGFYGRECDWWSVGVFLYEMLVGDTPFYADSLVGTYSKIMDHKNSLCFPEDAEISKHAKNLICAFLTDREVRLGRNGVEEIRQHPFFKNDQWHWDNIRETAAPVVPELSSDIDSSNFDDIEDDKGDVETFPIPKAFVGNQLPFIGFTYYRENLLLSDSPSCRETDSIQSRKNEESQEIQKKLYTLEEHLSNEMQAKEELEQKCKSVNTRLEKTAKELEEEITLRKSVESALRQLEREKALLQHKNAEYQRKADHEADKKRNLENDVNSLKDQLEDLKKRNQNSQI
T1 sequence (Q13464 1-535): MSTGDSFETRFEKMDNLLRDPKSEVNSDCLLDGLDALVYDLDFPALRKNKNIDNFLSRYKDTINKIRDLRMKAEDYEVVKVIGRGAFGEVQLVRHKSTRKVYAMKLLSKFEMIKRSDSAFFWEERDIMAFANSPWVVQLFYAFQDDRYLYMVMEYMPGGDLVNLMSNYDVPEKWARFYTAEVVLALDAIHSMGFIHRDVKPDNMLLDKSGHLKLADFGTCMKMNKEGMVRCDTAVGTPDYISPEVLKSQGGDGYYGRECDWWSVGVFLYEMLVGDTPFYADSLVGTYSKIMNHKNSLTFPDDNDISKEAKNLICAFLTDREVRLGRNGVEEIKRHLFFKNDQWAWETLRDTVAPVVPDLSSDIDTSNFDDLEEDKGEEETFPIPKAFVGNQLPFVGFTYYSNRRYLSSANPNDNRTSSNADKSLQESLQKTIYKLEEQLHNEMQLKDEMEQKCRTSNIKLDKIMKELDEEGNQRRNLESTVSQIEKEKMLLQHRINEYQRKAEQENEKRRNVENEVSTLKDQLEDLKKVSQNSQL

Take `Cc1c(-c2ccnc(N)n2)sc2ccc(CNC(=O)c3cc([N+](=O)[O-])ccc3O)cc12` [Example 228, Cc1c(sc2ccc(CNC(═O)c3cc(ccc3O)[N+]([O−])═O)cc12)-c4ccnc(N)n4]: the results for the pIC50 in test [1] (setting [3]) and in test [2] (setting [4]) were less than 5.30 and more than 5.30, respectively.
On to `Cc1c(-c2ccnc(N)n2)sc2ccc(CNC(=O)c3cc([N+](=O)[O-])ccc3F)cc12` [Example 229, Cc1c(sc2ccc(CNC(═O)c3cc(ccc3F)[N+]([O−])═O)cc12)-c4ccnc(N)n4], for which the pIC50 in test [1] (setting [3]) and in test [2] (setting [4]) was more than 5.30 each time.
In the case of `Cc1c(-c2ccnc(N)n2)sc2ccc(CNC(=O)c3cc(F)ccc3[N+](=O)[O-])cc12` [Example 230, Cc1c(sc2ccc(CNC(═O)c3cc(F)ccc3[N+]([O−])═O)cc12)-c4ccnc(N)n4], the pIC50 in test [1] (setting [3]) and in test [2] (setting [4]) was more than 5.30 each time.
For `Cc1c(-c2ccnc(N)n2)sc2ccc(CNC(=O)c3ccc(F)c([N+](=O)[O-])c3)cc12` [Example 231, Cc1c(sc2ccc(CNC(═O)c3ccc(F)c(c3)[N+]([O−])═O)cc12)-c4ccnc(N)n4], the pIC50 in test [1] (setting [3]) and in test [2] (setting [4]) was more than 5.30 throughout.
`COc1ccc(Cl)cc1C(=O)NCc1ccc2sc(-c3ccnc(N)n3)c(C)c2c1` [Example 232, COc1ccc(Cl)cc1C(═O)NCc2ccc3sc(c(C)c3c2)-c4ccnc(N)n4]: the figures for the negative logarithm of the IC50 (pIC50) in test [1] (setting [3]) and in test [2] (setting [4]) were less than 5.30 and more than 5.30, respectively.
With `COc1cc(Cl)ccc1C(=O)NCc1ccc2sc(-c3ccnc(N)n3)c(C)c2c1` [Example 233, COc1cc(Cl)ccc1C(═O)NCc2ccc3sc(c(C)c3c2)-c4ccnc(N)n4], the pIC50 in test [1] (setting [3]) and in test [2] (setting [4]) was more than 5.30 each time.
`Cc1c(-c2ccnc(N)n2)sc2ccc(CNC(=O)Cc3ccc(O)c(Cl)c3)cc12` [Example 234, Cc1c(sc2ccc(CNC(═O)Cc3ccc(O)c(Cl)c3)cc12)-c4ccnc(N)n4]: the pIC50 in test [1] (setting [3]) and in test [2] (setting [4]) was more than 5.30 each time.
As to `COc1cc(C(=O)NCc2ccc3sc(-c4ccnc(N)n4)c(C)c3c2)cc(Cl)n1` [Example 235, COc1cc(cc(Cl)n1)C(═O)NCc2ccc3sc(c(C)c3c2)-c4ccnc(N)n4], the pIC50 in test [1] (setting [3]) and in test [2] (setting [4]) was more than 5.30 each time.
On to `Cc1c(-c2ccnc(N)n2)sc2ccc(CNC(=O)c3ccc4cc(O)ccc4c3)cc12` [Example 236, Cc1c(sc2ccc(CNC(═O)c3ccc4cc(O)ccc4c3)cc12)-c5ccnc(N)n5], for which the negative logarithm of the IC50 (pIC50) in test [1] (setting [3]) and in test [2] (setting [4]) was more than 5.30 each time.
In the case of `Cc1c(-c2ccnc(N)n2)sc2ccc(CNC(=O)c3c(O)ccc4ccccc34)cc12` [Example 237, Cc1c(sc2ccc(CNC(═O)c3c(O)ccc4ccccc34)cc12)-c5ccnc(N)n5], the pIC50 in test [1] (setting [3]) and in test [2] (setting [4]) was more than 5.30 each time.
For the compound `Cc1c(-c2ccnc(N)n2)sc2ccc(CNC(=O)c3cc4ccccc4cc3O)cc12` [Example 238, Cc1c(sc2ccc(CNC(═O)c3cc4ccccc4cc3O)cc12)-c5ccnc(N)n5], the pIC50 in test [1] (setting [3]) and in test [2] (setting [4]) was more than 5.30 in each case.
As for `Cc1c(-c2ccnc(N)n2)sc2ccc(CNC(=O)c3ccc4ccccc4c3O)cc12` [Example 239, Cc1c(sc2ccc(CNC(═O)c3ccc4ccccc4c3O)cc12)-c5ccnc(N)n5], the pIC50 (usually −log10 of the IC50, conventionally taken in molar units) in test [1] (setting [3]) was less than 5.30; in test [2] (setting [4]), more than 5.30.
Take `Cc1c(-c2ccnc(N)n2)sc2ccc(CNC(=O)c3ccc4cccc(O)c4n3)cc12` [Example 240, Cc1c(sc2ccc(CNC(═O)c3ccc4cccc(O)c4n3)cc12)-c5ccnc(N)n5]: the pIC50 in test [1] (setting [3]) and in test [2] (setting [4]) was more than 5.30 in each case.
Turning to `Cc1c(-c2ccnc(N)n2)sc2ccc(CNC(=O)C(C)NC(=O)OC(C)(C)C)cc12` (centres unmarked) [Example 241, C[C](NC(═O)OC(C)(C)C)C(═O)NCc1ccc2sc(c(C)c2c1)-c3ccnc(N)n3], the pIC50 was more than 5.30 in test [1] (setting [3]) and less than 5.30 in test [2] (setting [4]).
With `Cc1c(-c2ccnc(N)n2)sc2ccc(CNC(=O)c3ccccc3C(F)(F)F)cc12` [Example 243, Cc1c(sc2ccc(CNC(═O)c3ccccc3C(F)(F)F)cc12)-c4ccnc(N)n4], the pIC50 in test [1] (setting [3]) and in test [2] (setting [4]) was more than 5.30 throughout.
Regarding `Cc1c(-c2ccnc(N)n2)sc2ccc(CNC(=O)CCc3nc4ccccc4[nH]3)cc12` [Example 244, Cc1c(sc2ccc(CNC(═O)CCc3nc4ccccc4[nH]3)cc12)-c5ccnc(N)n5], the pIC50 in test [1] (setting [3]) and in test [2] (setting [4]) was more than 5.30 in each case.
Turning to `Cc1c(-c2ccnc(N)n2)sc2ccc(CNC(=O)c3cccc(Cl)c3Cl)cc12` [Example 245, Cc1c(sc2ccc(CNC(═O)c3cccc(Cl)c3Cl)cc12)-c4ccnc(N)n4], the pIC50 in test [1] (setting [5]) is less than 5.30; in test [2] (setting [6]), more than 5.30.
Regarding `Cc1c(-c2ccnc(N)n2)sc2ccc(CNC(=O)c3ccc(Cl)cc3Cl)cc12` [Example 246, Cc1c(sc2ccc(CNC(═O)c3ccc(Cl)cc3Cl)cc12)-c4ccnc(N)n4], the pIC50 in test [1] (setting [5]) and in test [2] (setting [6]) was more than 5.30 each time.
Regarding `Cc1c(-c2ccnc(N)n2)sc2ccc(CNC(=O)c3cc(Cl)ccc3Cl)cc12` [Example 247, Cc1c(sc2ccc(CNC(═O)c3cc(Cl)ccc3Cl)cc12)-c4ccnc(N)n4], the pIC50 in test [1] (setting [5]) and in test [2] (setting [6]) was more than 5.30 throughout.
Regarding `Cc1c(-c2ccnc(N)n2)sc2ccc(CNC(=O)c3cc(F)c(F)c(O)c3F)cc12` [Example 248, Cc1c(sc2ccc(CNC(═O)c3cc(F)c(F)c(O)c3F)cc12)-c4ccnc(N)n4], the pIC50 in test [1] (setting [3]) and in test [2] (setting [4]) was more than 5.30 each time.
With `Cc1c(-c2ccnc(N)n2)sc2ccc(CNC(=O)C=Cc3ccc4c(c3)OCO4)cc12` [Example 249, Cc1c(sc2ccc(CNC(═O)C═Cc3ccc4OCOc4c3)cc12)-c5ccnc(N)n5], the pIC50 was less than 5.30 in test [1] (setting [3]) and more than 5.30 in test [2] (setting [4]).
The like results for `Cc1ccc(C(=O)CCC(=O)NCc2ccc3sc(-c4ccnc(N)n4)c(C)c3c2)cc1` [Example 250, Cc1ccc(cc1)C(═O)CCC(═O)NCc2ccc3sc(c(C)c3c2)-c4ccnc(N)n4] were, in that order, less than 5.30 and more than 5.30.
Take `CCCCCc1ccc(C(=O)NCc2ccc3sc(-c4ccnc(N)n4)c(C)c3c2)cc1` [Example 251, CCCCCc1ccc(cc1)C(═O)NCc2ccc3sc(c(C)c3c2)-c4ccnc(N)n4]: the pIC50 in test [1] (setting [3]) is more than 5.30; in test [2] (setting [4]), less than 5.30.
In the case of `Cc1c(-c2ccnc(N)n2)sc2ccc(CNC(=O)c3cc(F)c(F)cc3Cl)cc12` [Example 252, Cc1c(sc2ccc(CNC(═O)c3cc(F)c(F)cc3Cl)cc12)-c4ccnc(N)n4], the pIC50 in test [1] (setting [5]) and in test [2] (setting [6]) was more than 5.30 in each case.
Take `Cc1c(-c2ccnc(N)n2)sc2ccc(CNC(=O)c3cc(F)c(Cl)cc3F)cc12` [Example 253, Cc1c(sc2ccc(CNC(═O)c3cc(F)c(Cl)cc3F)cc12)-c4ccnc(N)n4]: the pIC50 in test [1] (setting [3]) and in test [2] (setting [4]) was more than 5.30 each time.
In the case of `CCN(CC)c1ccc(C(=O)NCc2ccc3sc(-c4ccnc(N)n4)c(C)c3c2)cc1` [Example 254, CCN(CC)c1ccc(cc1)C(═O)NCc2ccc3sc(c(C)c3c2)-c4ccnc(N)n4], the pIC50 in test [1] (setting [3]) was less than 5.30; in test [2] (setting [4]) it was more than 5.30.
The like results for `COc1cc(C=CC(=O)NCc2ccc3sc(-c4ccnc(N)n4)c(C)c3c2)ccc1O` [Example 255, COc1cc(C═CC(═O)NCc2ccc3sc(c(C)c3c2)-c4ccnc(N)n4)ccc1O] were, in that order, more than 5.30 and more than 5.30.
As for `COc1ccc(C=CC(=O)NCc2ccc3sc(-c4ccnc(N)n4)c(C)c3c2)cc1O` [Example 256, COc1ccc(C═CC(═O)NCc2ccc3sc(c(C)c3c2)-c4ccnc(N)n4)cc1O], the pIC50 in test [1] (setting [3]) and in test [2] (setting [4]) was more than 5.30 each time.

These data come from US20080021026A1, “BENZOTHIOPHENE INHIBITORS OF RHO KINASE” (priority 2006, published 2008).
